{
  "source": "EPA's ToxRefDB 2",
  "key": {"mouse [1]": {"system": "mouse", "conditions": "Multigenerational reproductive toxicity study, cd1, Oral, Water, dose end: 2 generation"}, "rabbit": {"system": "rabbit", "conditions": "Prenatal developmental toxicity study, new zealand white, Oral, Gavage/Intubation, dose end: 29 GD"}, "mouse [2]": {"system": "mouse", "conditions": "Combined chronic toxicity/carcinogenicity, b6c3f1, Oral, Gavage/Intubation, dose end: 104 week, group: systemic"}, "mouse [3]": {"system": "mouse", "conditions": "Subchronic oral toxicity in rodents, b6c3f1, Gavage/Intubation, dose end: 14 week, group: systemic"}, "rat [4]": {"system": "rat", "conditions": "Subchronic oral toxicity in rodents, fischer, Gavage/Intubation, dose end: 14 week, group: systemic"}, "rat [5]": {"system": "rat", "conditions": "Prenatal developmental toxicity study, sprague dawley, Oral, Gavage/Intubation, dose end: 19 GD"}, "rat [6]": {"system": "rat", "conditions": "Combined chronic toxicity/carcinogenicity, fischer, Oral, Gavage/Intubation, dose end: 104 week, group: systemic"}, "mouse [7]": {"system": "mouse", "conditions": "Subchronic oral toxicity in rodents, b6c3f1, Gavage/Intubation, dose end: 13 week, group: systemic"}, "mouse [8]": {"system": "mouse", "conditions": "Carcinogenicity; cd1; Oral; Gavage/Intubation; dose end: 78 week; group: systemic; systemic / in life observation / body weight / body weight + systemic / in life observation / body weight / body weight gain"}, "rat [9]": {"system": "rat", "conditions": "Subchronic oral toxicity in rodents, fischer, Gavage/Intubation, dose end: 13 week, group: systemic"}, "rat [10]": {"system": "rat", "conditions": "Chronic toxicity, sprague dawley, Oral, Gavage/Intubation, dose end: 24 month, group: systemic"}, "dog": {"system": "dog", "conditions": "Chronic toxicity, beagle, Oral, Capsule, dose end: 52 week, group: systemic"}, "[11]": {"conditions": "group: offspring, systemic / in life observation / body weight / offspring (pup) weight + systemic / in life observation / food consumption / food consumption…"}, "[12]": {"conditions": "group: parental, systemic / in life observation / body weight / body weight + systemic / organ weight / ovary / relative to body weight + systemic / organ …"}, "[13]": {"conditions": "group: parental, systemic / in life observation / water consumption / water consumption"}, "[14]": {"conditions": "group: reproductive, reproductive / offspring survival early / litter size / litter size + reproductive / reproductive performance / estrous cycle / length + …"}, "[15]": {"conditions": "group: developmental, systemic / in life observation / body weight / fetal weight"}, "[16]": {"conditions": "group: maternal, reproductive / reproductive performance / aborted / aborted + systemic / in life observation / body weight / body weight + systemic / in …"}, "[17]": {"conditions": "systemic / in life observation / body weight / body weight"}, "[18]": {"conditions": "systemic / pathology microscopic / pancreas / hyperplasia"}, "[19]": {"conditions": "systemic / pathology microscopic / pancreas / hyperplasia + systemic / pathology microscopic / pancreas / inflammation + systemic / …"}, "[20]": {"conditions": "systemic / in life observation / body weight / body weight + systemic / in life observation / body weight / body weight gain + systemic / …"}, "[21]": {"conditions": "group: developmental, developmental / developmental malformation / bone / unossified + systemic / in life observation / body weight / fetal weight"}, "[22]": {"conditions": "group: maternal, systemic / in life observation / body weight / body weight + systemic / in life observation / body weight / body weight gain + systemic / …"}, "[23]": {"conditions": "systemic / in life observation / body weight / body weight + systemic / pathology microscopic / pancreas / atrophy"}, "[24]": {"conditions": "systemic / in life observation / body weight / body weight + systemic / in life observation / body weight / body weight gain + systemic / in…"}, "[25]": {"conditions": "systemic / organ weight / liver / absolute + systemic / organ weight / liver / relative to body weight"}, "[26]": {"conditions": "systemic / clinical chemistry / alkaline phosphatase (alp/alk) / alkaline phosphatase (alp/alk) + systemic / clinical chemistry / urea …"}, "[27]": {"conditions": "systemic / pathology microscopic / liver / hyperplasia"}, "[28]": {"conditions": "systemic / pathology microscopic / liver / hyperplasia + systemic / pathology microscopic / bone marrow / [other]"}, "[29]": {"conditions": "systemic / clinical chemistry / albumin / albumin + systemic / clinical chemistry / albumin-globulin ratio / albumin-globulin ratio + …"}, "[30]": {"conditions": "systemic / hematology / leukocyte (wbc) count differential / leukocyte (wbc) + systemic / pathology microscopic / bone marrow / …"}},
  "data": [
    {"smiles": "NC=O", "note": "[Formamide]", "values": [
      {"measurement": "LOAEL", "setting": "mouse [1]; [11]", "value": "> 190", "unit": "mg/kg/day"},
      {"measurement": "NEL", "setting": "mouse [1]; [11]", "value": 26, "unit": "mg/kg/day"},
      {"measurement": "NOAEL", "setting": "mouse [1]; [11]", "value": "≥ 190", "unit": "mg/kg/day"},
      {"measurement": "LEL", "setting": "mouse [1]; group: offspring, systemic / in life observation / food consumption / food consumption", "value": 87, "unit": "mg/kg/day"},
      {"measurement": "LOAEL", "setting": "mouse [1]; [12]", "value": "> 190", "unit": "mg/kg/day"},
      {"measurement": "NOAEL", "setting": "mouse [1]; [12]", "value": "≥ 190", "unit": "mg/kg/day"},
      {"measurement": "LEL", "setting": "mouse [1]; [13]", "value": 24, "unit": "mg/kg/day"},
      {"measurement": "NEL", "setting": "mouse [1]; [13]", "value": "< 24", "unit": "mg/kg/day"},
      {"measurement": "LEL", "setting": "mouse [1]; [14]", "value": 190, "unit": "mg/kg/day"},
      {"measurement": "LOAEL", "setting": "mouse [1]; [14]", "value": "> 190", "unit": "mg/kg/day"},
      {"measurement": "NEL", "setting": "mouse [1]; [14]", "value": 87, "unit": "mg/kg/day"},
      {"measurement": "NOAEL", "setting": "mouse [1]; [14]", "value": "≥ 190", "unit": "mg/kg/day"},
      {"measurement": "LEL", "setting": "rabbit; [15]", "value": 140, "unit": "mg/kg/day"},
      {"measurement": "LOAEL", "setting": "rabbit; [15]", "value": "> 140", "unit": "mg/kg/day"},
      {"measurement": "NEL", "setting": "rabbit; [15]", "value": 70, "unit": "mg/kg/day"},
      {"measurement": "NOAEL", "setting": "rabbit; [15]", "value": "≥ 140", "unit": "mg/kg/day"},
      {"measurement": "LEL", "setting": "rabbit; [16]", "value": 140, "unit": "mg/kg/day"},
      {"measurement": "LOAEL", "setting": "rabbit; [16]", "value": "> 140", "unit": "mg/kg/day"},
      {"measurement": "NEL", "setting": "rabbit; [16]", "value": 70, "unit": "mg/kg/day"},
      {"measurement": "NOAEL", "setting": "rabbit; [16]", "value": "≥ 140", "unit": "mg/kg/day"},
      {"measurement": "LOAEL", "setting": "mouse [2]; [17]", "value": 80, "unit": "mg/kg/day"},
      {"measurement": "NOAEL", "setting": "mouse [2]; systemic / in life observation / body weight / body weight + systemic / pathology microscopic / liver / adenoma/carcinoma combined + …", "value": 40, "unit": "mg/kg/day"},
      {"measurement": "LEL", "setting": "mouse [2]; [18]", "value": 20, "unit": "mg/kg/day"},
      {"measurement": "NEL", "setting": "mouse [2]; [18]", "value": "< 20", "unit": "mg/kg/day"},
      {"measurement": "LEL", "setting": "mouse [3]; systemic / in life observation / body weight / body weight gain + systemic / hematology / platelet / platelet", "value": 40, "unit": "mg/kg/day"},
      {"measurement": "LOAEL", "setting": "mouse [3]; systemic / pathology microscopic / pancreas / hyperplasia + systemic / pathology microscopic / pancreas / inflammation + systemic / in life …", "value": 80, "unit": "mg/kg/day"},
      {"measurement": "NEL", "setting": "mouse [3]; [19]", "value": 20, "unit": "mg/kg/day"},
      {"measurement": "NOAEL", "setting": "mouse [3]; [19]", "value": 40, "unit": "mg/kg/day"},
      {"measurement": "LEL", "setting": "rat [4]; systemic / in life observation / body weight / body weight + systemic / hematology / [other] / [other] + systemic / hematology / erythrocyte…", "value": 40, "unit": "mg/kg/day"},
      {"measurement": "LOAEL", "setting": "rat [4]; systemic / in life observation / body weight / body weight + systemic / in life observation / body weight / body weight gain", "value": 80, "unit": "mg/kg/day"},
      {"measurement": "NEL", "setting": "rat [4]; [20]", "value": 20, "unit": "mg/kg/day"},
      {"measurement": "NOAEL", "setting": "rat [4]; [20]", "value": 40, "unit": "mg/kg/day"},
      {"measurement": "LEL", "setting": "rat [5]; [21]", "value": 100, "unit": "mg/kg/day"},
      {"measurement": "LOAEL", "setting": "rat [5]; [21]", "value": "> 200", "unit": "mg/kg/day"},
      {"measurement": "NEL", "setting": "rat [5]; [21]", "value": 50, "unit": "mg/kg/day"},
      {"measurement": "NOAEL", "setting": "rat [5]; [21]", "value": "≥ 200", "unit": "mg/kg/day"},
      {"measurement": "LEL", "setting": "rat [5]; [22]", "value": 200, "unit": "mg/kg/day"},
      {"measurement": "LOAEL", "setting": "rat [5]; [22]", "value": "> 200", "unit": "mg/kg/day"},
      {"measurement": "NEL", "setting": "rat [5]; [22]", "value": 100, "unit": "mg/kg/day"},
      {"measurement": "NOAEL", "setting": "rat [5]; [22]", "value": "≥ 200", "unit": "mg/kg/day"},
      {"measurement": "LEL", "setting": "rat [6]; [17]", "value": 40, "unit": "mg/kg/day"},
      {"measurement": "LOAEL", "setting": "rat [6]; [17]", "value": 80, "unit": "mg/kg/day"},
      {"measurement": "NEL", "setting": "rat [6]; [23]", "value": 20, "unit": "mg/kg/day"},
      {"measurement": "NOAEL", "setting": "rat [6]; [23]", "value": 40, "unit": "mg/kg/day"}
    ]},
    {"smiles": "N#CSCSC#N", "note": "[Methylene bis(thiocyanate)]", "values": [
      {"measurement": "LOAEL", "setting": "mouse [7]; [24]", "value": "> 16", "unit": "mg/kg/day"},
      {"measurement": "NOAEL", "setting": "mouse [7]; [24]", "value": "≥ 16", "unit": "mg/kg/day"},
      {"measurement": "LEL", "setting": "mouse [7]; [25]", "value": 1, "unit": "mg/kg/day"},
      {"measurement": "NEL", "setting": "mouse [7]; [25]", "value": "< 1", "unit": "mg/kg/day"},
      {"measurement": "LEL", "setting": "mouse [8]", "value": 3, "unit": "mg/kg/day"},
      {"measurement": "LOAEL", "setting": "mouse [8]", "value": 3, "unit": "mg/kg/day"},
      {"measurement": "NEL", "setting": "mouse [8]", "value": 1.2, "unit": "mg/kg/day"},
      {"measurement": "NOAEL", "setting": "mouse [8]", "value": 1.2, "unit": "mg/kg/day"},
      {"measurement": "LEL", "setting": "rat [9]; [26]", "value": 1, "unit": "mg/kg/day"},
      {"measurement": "NEL", "setting": "rat [9]; [26]", "value": "< 1", "unit": "mg/kg/day"},
      {"measurement": "LOAEL", "setting": "rat [9]; systemic / in life observation / mortality / mortality", "value": 2, "unit": "mg/kg/day"},
      {"measurement": "NOAEL", "setting": "rat [9]; systemic / in life observation / mortality / mortality + systemic / clinical chemistry / alanine aminotransferase (alt/sgpt) / alanine …", "value": 1, "unit": "mg/kg/day"},
      {"measurement": "LOAEL", "setting": "rat [10]; [27]", "value": 0.4, "unit": "mg/kg/day"},
      {"measurement": "NOAEL", "setting": "rat [10]; [27]", "value": "< 0.4", "unit": "mg/kg/day"},
      {"measurement": "LEL", "setting": "rat [10]; [28]", "value": 0.4, "unit": "mg/kg/day"},
      {"measurement": "NEL", "setting": "rat [10]; [28]", "value": "< 0.4", "unit": "mg/kg/day"},
      {"measurement": "LOAEL", "setting": "dog; [29]", "value": 2, "unit": "mg/kg/day"},
      {"measurement": "NOAEL", "setting": "dog; [29]", "value": 0.5, "unit": "mg/kg/day"},
      {"measurement": "LEL", "setting": "dog; [30]", "value": 0.5, "unit": "mg/kg/day"},
      {"measurement": "NEL", "setting": "dog; [30]", "value": "< 0.5", "unit": "mg/kg/day"}
    ]}
  ]
}
